Experiment [1] in a line: THP-1 cell cytotoxicity, dose response, cytotoxicity control for non-replicating M. tuberculosis project (AID 489025). Format: functional.
Experiment [2] in a line: Vero E6 cell cytotoxicity, dose response, cytotoxicity control for non-replicating M. tuberculosis project, secondary assay (AID 492998). To be noted: Vero C1008. It counts as functional, VeroE6.
A short description of experiment [3]: microbe, parasite or virus in culture. Format: functional. To be noted: Mycobacterium tuberculosis.
Experiment [4] in a line: HepG2 cell cytotoxicity, dose response, cytotoxicity control for non-replicating M. tuberculosis project (AID 489018). It counts as functional. To be noted: Mycobacterium tuberculosis.
In a further experiment the target is Bcl-2-like protein 10 (Homo sapiens, UniProt Q9HD36). Description: displacers of TR3 peptide from Bcl-B, primary screen, selectivity assay for Bfl-1 inhibitor project, biochemical, fluorescence polarization, FITC-TR3 peptide (AID 748).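 Further: fluorescence polarization from a fluorescein-labelled TR3 peptide binding purified Bcl-B.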 Background: In fluorescence polarisation assays a small probe gives low polarisation when free and higher when bound to something large.

Another experiment can be described thus: cells. It counts as functional.
In experiment [5] the target is T1, Corticotropin-releasing factor receptor 2/Corticotropin-releasing factor-binding protein (Homo sapiens, UniProt P24387+Q13324).
T1 sequence (Q13324 whole entry): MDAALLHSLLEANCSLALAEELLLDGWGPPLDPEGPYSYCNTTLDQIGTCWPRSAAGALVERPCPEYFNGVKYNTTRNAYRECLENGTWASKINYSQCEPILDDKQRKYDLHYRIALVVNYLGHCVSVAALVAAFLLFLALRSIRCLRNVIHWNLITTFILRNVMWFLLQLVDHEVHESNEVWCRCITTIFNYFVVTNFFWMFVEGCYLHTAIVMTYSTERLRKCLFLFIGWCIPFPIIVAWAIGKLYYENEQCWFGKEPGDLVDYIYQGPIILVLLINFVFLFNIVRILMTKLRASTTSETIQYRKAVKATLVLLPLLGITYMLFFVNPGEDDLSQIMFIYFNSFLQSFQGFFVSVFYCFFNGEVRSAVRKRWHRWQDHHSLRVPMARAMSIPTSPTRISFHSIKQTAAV
T1 sequence (P24387 whole entry): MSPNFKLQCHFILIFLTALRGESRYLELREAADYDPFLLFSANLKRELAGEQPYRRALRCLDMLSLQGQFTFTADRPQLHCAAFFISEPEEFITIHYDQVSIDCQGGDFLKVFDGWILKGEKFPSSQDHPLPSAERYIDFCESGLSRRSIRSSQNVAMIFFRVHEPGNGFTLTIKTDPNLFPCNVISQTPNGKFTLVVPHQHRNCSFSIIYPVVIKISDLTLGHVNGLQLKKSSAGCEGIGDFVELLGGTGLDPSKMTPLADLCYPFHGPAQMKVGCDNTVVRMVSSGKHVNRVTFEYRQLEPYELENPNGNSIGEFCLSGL
Description: activators of CRF receptor 2 with binding protein – uHTS hits, confirmation (AID 602473). Format: functional. To be noted: read-out: EC50_Mean.

Experiment [6] has as its target T2, RNA-binding protein pos-1 (Caenorhabditis elegans, UniProt G5EF15).
T2 sequence (G5EF15 whole entry): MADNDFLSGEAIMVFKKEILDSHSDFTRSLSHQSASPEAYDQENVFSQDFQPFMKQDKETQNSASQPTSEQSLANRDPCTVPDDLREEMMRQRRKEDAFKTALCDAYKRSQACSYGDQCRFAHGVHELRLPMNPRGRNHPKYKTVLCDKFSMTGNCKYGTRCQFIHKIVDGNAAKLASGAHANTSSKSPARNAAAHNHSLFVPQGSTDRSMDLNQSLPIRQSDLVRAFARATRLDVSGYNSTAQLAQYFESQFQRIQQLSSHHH
Description: inhibitors of POS-1/mex-3 RNA binding, dose response, biochemical, fluorescence polarization (AID 1964).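 Further: purified POS-1 fused to maltose binding protein made in E. coli; potency of compounds blocking POS-1 binding to fluorescent RNA.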

Experiment [7] addresses Intestinal-type alkaline phosphatase (Homo sapiens, UniProt P09923). The experiment in a line: Dose Response confirmation of uHTS hits from a small molecule inhibitors of human intestinal alkaline phosphatase via a luminescent assay. [Related pubchem assays (depositor defined):AID2544, AID2574]. It counts as functional.
Another experiment addresses Tumor necrosis factor (Homo sapiens, UniProt P01375). Description: TNFa-triggered NF-kB activation inhibitors, SAR follow-up, cell-based, revised (AID 2337). Format: functional.
Experiment [8] deals with HEK293. The experiment in a line: cells. To be noted: Homo sapiens.
For experiment [9], the target named is T3, Ubiquitin-conjugating enzyme E2 N (Homo sapiens, UniProt P61088).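 Further: Dose-response confirmation in a TR-FRET assay detecting UBC13-driven polyubiquitin chain formation, inhibition measured.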
T3 sequence (P61088 whole entry): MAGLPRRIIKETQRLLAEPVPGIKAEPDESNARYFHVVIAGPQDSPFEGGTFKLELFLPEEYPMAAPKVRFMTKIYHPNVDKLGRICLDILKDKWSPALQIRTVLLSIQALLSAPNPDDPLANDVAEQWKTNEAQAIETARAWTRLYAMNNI
Format: functional.

Experiment [10] deals with HEK293. Description: NOD2 signaling inhibitors in MDP-stimulated cells, cell-based, uHTS, luminescence (AID 2001). It counts as functional. As to conditions: Homo sapiens.
Experiment [11] deals with HEK293. Description: NOD1 signaling inhibitors, primary screen, cell-based, luminescence, uHTS (AID 1578). It counts as functional. As to conditions: Homo sapiens.
Experiment [12] deals with T4, Nucleotide-binding oligomerization domain-containing protein 1 (Homo sapiens, UniProt Q9Y239).
T4 sequence (Q9Y239 whole entry): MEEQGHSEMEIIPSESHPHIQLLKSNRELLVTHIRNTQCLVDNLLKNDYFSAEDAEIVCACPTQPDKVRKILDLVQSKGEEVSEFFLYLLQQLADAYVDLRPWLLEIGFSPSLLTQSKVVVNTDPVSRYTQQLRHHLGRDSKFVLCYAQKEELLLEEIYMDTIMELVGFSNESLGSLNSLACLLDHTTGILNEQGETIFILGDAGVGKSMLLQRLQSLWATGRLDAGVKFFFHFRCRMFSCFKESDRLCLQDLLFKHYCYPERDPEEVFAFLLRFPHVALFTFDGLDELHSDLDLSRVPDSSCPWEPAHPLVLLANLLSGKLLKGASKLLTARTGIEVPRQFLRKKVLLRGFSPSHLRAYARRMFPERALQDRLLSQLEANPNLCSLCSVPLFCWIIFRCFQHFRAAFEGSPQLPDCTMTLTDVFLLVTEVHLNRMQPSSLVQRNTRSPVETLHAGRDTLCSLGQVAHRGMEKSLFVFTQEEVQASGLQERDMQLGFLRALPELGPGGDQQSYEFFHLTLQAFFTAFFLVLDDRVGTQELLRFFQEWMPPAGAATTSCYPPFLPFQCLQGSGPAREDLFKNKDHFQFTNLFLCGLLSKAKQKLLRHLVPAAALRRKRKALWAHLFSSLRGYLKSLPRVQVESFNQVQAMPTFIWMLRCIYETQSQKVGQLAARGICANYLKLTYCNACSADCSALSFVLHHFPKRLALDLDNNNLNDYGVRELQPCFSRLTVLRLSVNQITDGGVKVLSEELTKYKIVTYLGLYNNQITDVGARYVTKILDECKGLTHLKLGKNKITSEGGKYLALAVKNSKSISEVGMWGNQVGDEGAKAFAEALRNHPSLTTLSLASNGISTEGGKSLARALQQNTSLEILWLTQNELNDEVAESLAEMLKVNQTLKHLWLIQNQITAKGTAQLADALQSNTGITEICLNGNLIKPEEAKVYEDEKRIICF
Description: NOD1 signaling inhibitors, SAR follow-up, revised (AID 2333). It counts as functional.

In experiment [13] the test system is HEK293. Description: cells. As to conditions: Homo sapiens. Format: functional, cell-based.
Experiment [14] concerns HEK293. The experiment in a line: cells. It counts as functional, cell-based. To be noted: Homo sapiens. The source holds these as a separate data set.
In experiment [15] the target is Nucleotide-binding oligomerization domain-containing protein 2 (Homo sapiens, UniProt Q9HC29). The experiment in a line: PubChem AID 2334. Format: functional.

Activity calls are given as the source filed them.

Sequence of Intestinal-type alkaline phosphatase (P09923 whole entry): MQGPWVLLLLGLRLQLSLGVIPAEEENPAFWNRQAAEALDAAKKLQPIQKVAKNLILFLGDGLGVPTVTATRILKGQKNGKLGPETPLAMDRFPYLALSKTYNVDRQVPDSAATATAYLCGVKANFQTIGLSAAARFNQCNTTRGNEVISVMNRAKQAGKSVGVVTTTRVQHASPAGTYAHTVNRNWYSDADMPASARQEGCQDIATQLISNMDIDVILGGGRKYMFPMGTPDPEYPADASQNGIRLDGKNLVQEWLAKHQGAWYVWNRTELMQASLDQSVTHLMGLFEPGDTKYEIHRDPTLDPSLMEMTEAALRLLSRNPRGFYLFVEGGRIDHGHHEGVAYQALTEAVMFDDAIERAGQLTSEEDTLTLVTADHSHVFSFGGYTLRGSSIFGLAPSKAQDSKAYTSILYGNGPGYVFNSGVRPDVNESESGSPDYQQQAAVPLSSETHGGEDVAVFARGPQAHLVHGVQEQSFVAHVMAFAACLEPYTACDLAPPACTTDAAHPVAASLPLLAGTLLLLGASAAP
Sequence of Nucleotide-binding oligomerization domain-containing protein 2 (Q9HC29 whole entry, the tested form may be a part): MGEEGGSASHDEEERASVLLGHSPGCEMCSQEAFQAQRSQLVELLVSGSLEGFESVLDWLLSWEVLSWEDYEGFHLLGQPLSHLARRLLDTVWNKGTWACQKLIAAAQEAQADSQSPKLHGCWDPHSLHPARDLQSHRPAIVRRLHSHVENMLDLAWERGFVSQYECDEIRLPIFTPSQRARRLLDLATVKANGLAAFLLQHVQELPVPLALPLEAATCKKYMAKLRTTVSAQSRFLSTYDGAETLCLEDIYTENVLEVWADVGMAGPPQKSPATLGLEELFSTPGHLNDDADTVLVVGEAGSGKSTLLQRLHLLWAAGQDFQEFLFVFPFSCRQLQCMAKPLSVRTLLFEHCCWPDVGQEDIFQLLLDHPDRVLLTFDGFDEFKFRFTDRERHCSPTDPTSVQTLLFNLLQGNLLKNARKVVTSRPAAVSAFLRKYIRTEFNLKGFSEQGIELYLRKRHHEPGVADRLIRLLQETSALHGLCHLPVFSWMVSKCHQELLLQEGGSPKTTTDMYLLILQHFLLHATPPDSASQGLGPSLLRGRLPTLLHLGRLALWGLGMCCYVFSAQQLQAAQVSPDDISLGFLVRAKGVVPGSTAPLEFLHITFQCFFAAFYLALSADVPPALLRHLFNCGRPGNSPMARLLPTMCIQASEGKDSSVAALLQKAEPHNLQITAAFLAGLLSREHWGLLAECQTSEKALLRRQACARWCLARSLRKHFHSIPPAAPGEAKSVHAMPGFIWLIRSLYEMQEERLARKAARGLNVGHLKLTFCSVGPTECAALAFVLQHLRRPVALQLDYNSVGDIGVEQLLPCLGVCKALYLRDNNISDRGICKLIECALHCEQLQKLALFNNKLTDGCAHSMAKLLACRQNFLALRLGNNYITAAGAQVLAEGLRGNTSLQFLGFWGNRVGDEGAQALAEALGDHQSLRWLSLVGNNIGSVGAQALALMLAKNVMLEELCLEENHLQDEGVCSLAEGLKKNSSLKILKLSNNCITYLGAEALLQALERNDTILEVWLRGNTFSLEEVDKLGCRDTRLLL
Sequence of Bcl-2-like protein 10 (Q9HD36 whole entry): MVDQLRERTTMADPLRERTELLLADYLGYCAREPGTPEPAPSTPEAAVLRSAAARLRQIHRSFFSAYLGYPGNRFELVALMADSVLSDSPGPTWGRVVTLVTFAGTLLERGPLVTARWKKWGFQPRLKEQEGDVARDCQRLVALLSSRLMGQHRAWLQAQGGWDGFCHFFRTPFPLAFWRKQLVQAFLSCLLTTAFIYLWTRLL
Sequence of Tumor necrosis factor (P01375 whole entry): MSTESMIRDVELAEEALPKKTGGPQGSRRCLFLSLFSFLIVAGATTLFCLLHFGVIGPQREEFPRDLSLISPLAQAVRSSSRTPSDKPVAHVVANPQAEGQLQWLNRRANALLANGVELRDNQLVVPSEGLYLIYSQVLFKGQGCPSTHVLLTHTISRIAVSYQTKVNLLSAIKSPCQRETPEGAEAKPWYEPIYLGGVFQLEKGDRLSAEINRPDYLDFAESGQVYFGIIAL

For orientation: IC50 means the concentration that gives 50% inhibition. Turning to `Cc1c(CN(C)C)c2c(n1Cc1ccccc1)C(=O)c1ccc(Br)cc1-2`, the CC50 in experiment [1] is 10.5 µM (active); in experiment [2] it was 15.3 µM (active); in [3] it was 22 µM (active); in [4], > 20 µM (active). Further, the figures for the IC50 on Bcl-2-like protein 10 and in the experiment “cells” were > 50 µM (inactive) and 10.6 µM (active), respectively.

For `COC(=O)Cn1cc(/C=C2\C(=O)NC(=O)N(c3ccccc3)C2=O)c2ccccc21`, the values for the EC50 in experiment [5] and in experiment [6] were 7.64 µM (active) and > 300 µM (inconclusive), respectively. The IC50 in experiment [7] is > 100 µM (inactive).

On to `O=S(=O)(Nc1nc2ccccc2[nH]1)c1ccc(Cl)cc1`, for which the IC50 at Tumor necrosis factor was > 20 µM (inactive); in the experiment with HEK293 [8], > 20 µM (inactive); in [9], > 20 µM (inactive); in the experiment with HEK293 [10], > 20 µM (inactive); in experiment [12] it was 1.52 µM (active); in the experiment with HEK293 [13], > 20 µM (inactive). For the same molecule, the IC50 (in the experiment with HEK293 [14]; in experiment [15]) was > 20 µM (inactive) in each case. In addition, in the experiment on HEK293 [11], the EC50 was 2.29 µM (active).

(Values after ChEMBL document CHEMBL1201862, “PubChem BioAssay data set” (2004).)
